Tests used:
Assay in all cases: kinobeads assay with mass spectrometry detection of kinases (kinase selectivity profile)
Assay type in all cases: binding
kinases (kinome) [1] = molecular target: T1, kinases (kinome) (Homo sapiens, UniProt Q06187); conditions: BTK (TK), IPI00029132
T1 construct: determined in kinobeads assays with mass spectrometry detection of kinases as described previously; endogenous in cells; host or cells: cell lysate
Excerpt: (§1) The protein kinase complement of the human genome (the kinome) was described previously (Manning et al., 2002. Science 298(5600):1912-1934). Sequence accession numbers are defined by the International Protein Index (IPI) (Kersey et al., 2004. Proteomics 4(7):1985-1988).

kinases (kinome) [2] = molecular target: T2, kinases (kinome) (Homo sapiens, UniProt P68400); conditions: CK2a1 (Other), IPI00016613
T2 construct: determined in kinobeads assays with mass spectrometry detection of kinases as described previously; endogenous in cells; host or cells: cell lysate
Excerpt: as §1

kinases (kinome) [3] = molecular target: T3, kinases (kinome) (Homo sapiens, UniProt P06241); conditions: FYN (TK), IPI00219012
T3 construct: determined in kinobeads assays with mass spectrometry detection of kinases as described previously; endogenous in cells; host or cells: cell lysate
Excerpt: as §1

kinases (kinome) [4] = molecular target: T4, kinases (kinome) (Homo sapiens, UniProt Q13043); conditions: MST1 (STE), IPI00011488
T4 construct: determined in kinobeads assays with mass spectrometry detection of kinases as described previously; endogenous in cells; host or cells: cell lysate
T4 sequence (Q13043 1-487): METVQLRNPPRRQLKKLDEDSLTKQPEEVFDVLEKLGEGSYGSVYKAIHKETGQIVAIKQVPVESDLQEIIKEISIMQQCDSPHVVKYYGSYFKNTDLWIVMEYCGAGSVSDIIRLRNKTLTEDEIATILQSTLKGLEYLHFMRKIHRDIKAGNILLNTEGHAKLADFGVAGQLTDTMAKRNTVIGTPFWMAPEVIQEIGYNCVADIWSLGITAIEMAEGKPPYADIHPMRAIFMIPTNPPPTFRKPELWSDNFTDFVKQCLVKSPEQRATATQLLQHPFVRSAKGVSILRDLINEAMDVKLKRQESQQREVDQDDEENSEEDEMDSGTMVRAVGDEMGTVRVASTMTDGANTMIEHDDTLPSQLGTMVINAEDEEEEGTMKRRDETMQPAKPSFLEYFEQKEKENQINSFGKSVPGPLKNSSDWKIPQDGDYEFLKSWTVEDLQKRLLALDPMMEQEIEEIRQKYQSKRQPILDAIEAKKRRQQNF
Excerpt: as §1

kinases (kinome) [5] = molecular target: T5, kinases (kinome) (Homo sapiens, UniProt P49841); conditions: GSK3B (CMGC), IPI00216190
T5 construct: determined in kinobeads assays with mass spectrometry detection of kinases as described previously; endogenous in cells; host or cells: cell lysate
Excerpt: as §1

kinases (kinome) [6] = molecular target: T6, kinases (kinome) (Homo sapiens, UniProt Q9Y572); conditions: RIPK3 (TKL), IPI00847572
T6 construct: determined in kinobeads assays with mass spectrometry detection of kinases as described previously; endogenous in cells; host or cells: cell lysate
Excerpt: as §1

kinases (kinome) [7] = molecular target: T7, kinases (kinome) (Homo sapiens, UniProt Q9UL54); conditions: TAO2 (STE), IPI00006283
T7 construct: determined in kinobeads assays with mass spectrometry detection of kinases as described previously; endogenous in cells; host or cells: cell lysate
T7 sequence (Q9UL54 1-1235): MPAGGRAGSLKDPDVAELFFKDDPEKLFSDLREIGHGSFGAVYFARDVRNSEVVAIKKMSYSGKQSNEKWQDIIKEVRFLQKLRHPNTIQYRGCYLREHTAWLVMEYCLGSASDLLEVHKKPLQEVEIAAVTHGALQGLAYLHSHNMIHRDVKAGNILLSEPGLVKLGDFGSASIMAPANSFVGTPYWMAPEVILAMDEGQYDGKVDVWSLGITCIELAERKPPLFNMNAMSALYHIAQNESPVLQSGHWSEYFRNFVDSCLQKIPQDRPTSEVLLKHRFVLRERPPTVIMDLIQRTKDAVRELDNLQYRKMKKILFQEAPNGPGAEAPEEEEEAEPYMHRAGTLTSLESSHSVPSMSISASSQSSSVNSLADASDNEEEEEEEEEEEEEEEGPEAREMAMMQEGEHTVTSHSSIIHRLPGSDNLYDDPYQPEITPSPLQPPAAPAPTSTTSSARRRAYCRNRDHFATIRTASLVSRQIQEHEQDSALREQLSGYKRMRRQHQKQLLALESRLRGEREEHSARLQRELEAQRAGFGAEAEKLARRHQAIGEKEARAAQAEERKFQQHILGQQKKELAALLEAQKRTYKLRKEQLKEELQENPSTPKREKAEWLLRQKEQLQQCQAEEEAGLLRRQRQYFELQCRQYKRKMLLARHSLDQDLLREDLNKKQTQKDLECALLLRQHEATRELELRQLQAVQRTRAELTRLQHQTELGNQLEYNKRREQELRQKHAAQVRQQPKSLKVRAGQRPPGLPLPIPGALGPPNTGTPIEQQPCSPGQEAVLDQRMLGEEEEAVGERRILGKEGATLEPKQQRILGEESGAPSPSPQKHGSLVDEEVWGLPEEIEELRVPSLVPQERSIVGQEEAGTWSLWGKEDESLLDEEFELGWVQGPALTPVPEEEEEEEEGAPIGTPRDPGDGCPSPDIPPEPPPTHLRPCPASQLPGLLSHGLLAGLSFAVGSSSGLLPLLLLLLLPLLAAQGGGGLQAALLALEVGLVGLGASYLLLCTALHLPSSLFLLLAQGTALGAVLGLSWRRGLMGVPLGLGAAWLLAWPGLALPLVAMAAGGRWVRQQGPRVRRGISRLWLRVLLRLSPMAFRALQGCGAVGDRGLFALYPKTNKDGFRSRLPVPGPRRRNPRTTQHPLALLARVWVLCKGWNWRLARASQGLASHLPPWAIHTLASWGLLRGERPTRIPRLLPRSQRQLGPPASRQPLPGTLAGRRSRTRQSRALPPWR
Excerpt: as §1

kinases (kinome) [8] = molecular target: T8, kinases (kinome) (Homo sapiens, UniProt P42356); conditions: PIK4Ca (Lipid Kinase), IPI00070943
T8 construct: determined in kinobeads assays with mass spectrometry detection of kinases as described previously; endogenous in cells; host or cells: cell lysate
Excerpt: as §1

kinases (kinome) [9] = molecular target: T9, kinases (kinome) (Homo sapiens, UniProt Q9UBE8); conditions: NLK (CMGC), IPI00008237
T9 construct: determined in kinobeads assays with mass spectrometry detection of kinases as described previously; endogenous in cells; host or cells: cell lysate
T9 sequence (Q9UBE8 1-527): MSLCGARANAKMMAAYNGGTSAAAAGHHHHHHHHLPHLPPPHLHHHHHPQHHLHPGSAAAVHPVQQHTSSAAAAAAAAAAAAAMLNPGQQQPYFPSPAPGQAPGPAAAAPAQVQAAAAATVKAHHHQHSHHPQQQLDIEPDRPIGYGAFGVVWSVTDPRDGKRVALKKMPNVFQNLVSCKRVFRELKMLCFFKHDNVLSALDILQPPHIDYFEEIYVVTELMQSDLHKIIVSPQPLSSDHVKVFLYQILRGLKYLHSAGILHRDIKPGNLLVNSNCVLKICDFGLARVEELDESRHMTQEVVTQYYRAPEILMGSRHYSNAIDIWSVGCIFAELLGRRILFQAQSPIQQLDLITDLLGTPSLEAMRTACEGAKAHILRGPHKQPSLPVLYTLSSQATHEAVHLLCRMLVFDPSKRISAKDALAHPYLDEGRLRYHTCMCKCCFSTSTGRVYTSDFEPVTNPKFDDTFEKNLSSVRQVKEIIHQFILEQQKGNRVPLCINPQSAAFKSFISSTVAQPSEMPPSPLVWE
Excerpt: as §1

T3 sequence (P06241 whole entry): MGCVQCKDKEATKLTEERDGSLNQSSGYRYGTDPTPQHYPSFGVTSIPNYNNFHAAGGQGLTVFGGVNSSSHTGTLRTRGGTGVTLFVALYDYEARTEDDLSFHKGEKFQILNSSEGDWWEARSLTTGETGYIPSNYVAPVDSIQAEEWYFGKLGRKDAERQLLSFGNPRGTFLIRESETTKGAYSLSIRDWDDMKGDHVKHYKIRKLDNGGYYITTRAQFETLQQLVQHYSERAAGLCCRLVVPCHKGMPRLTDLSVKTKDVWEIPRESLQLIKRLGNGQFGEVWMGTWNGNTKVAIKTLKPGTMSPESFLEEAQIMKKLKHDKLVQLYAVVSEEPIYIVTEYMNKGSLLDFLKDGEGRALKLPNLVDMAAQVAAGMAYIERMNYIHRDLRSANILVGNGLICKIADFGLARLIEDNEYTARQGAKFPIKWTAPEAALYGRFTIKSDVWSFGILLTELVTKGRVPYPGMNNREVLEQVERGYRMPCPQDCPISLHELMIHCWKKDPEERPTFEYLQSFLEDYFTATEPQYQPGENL
T5 sequence (P49841 whole entry): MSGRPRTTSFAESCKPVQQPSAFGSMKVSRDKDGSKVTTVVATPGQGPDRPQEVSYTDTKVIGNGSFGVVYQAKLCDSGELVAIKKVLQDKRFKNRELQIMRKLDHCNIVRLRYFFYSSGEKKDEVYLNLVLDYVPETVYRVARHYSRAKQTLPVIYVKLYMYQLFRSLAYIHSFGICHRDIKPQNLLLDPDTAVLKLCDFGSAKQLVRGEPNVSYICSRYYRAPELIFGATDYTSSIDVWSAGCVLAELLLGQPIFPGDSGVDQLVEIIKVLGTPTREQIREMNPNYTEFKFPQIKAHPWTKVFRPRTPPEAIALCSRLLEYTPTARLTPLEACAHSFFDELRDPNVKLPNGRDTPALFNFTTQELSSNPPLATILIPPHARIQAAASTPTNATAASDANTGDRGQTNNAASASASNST
T8 sequence (P42356 whole entry): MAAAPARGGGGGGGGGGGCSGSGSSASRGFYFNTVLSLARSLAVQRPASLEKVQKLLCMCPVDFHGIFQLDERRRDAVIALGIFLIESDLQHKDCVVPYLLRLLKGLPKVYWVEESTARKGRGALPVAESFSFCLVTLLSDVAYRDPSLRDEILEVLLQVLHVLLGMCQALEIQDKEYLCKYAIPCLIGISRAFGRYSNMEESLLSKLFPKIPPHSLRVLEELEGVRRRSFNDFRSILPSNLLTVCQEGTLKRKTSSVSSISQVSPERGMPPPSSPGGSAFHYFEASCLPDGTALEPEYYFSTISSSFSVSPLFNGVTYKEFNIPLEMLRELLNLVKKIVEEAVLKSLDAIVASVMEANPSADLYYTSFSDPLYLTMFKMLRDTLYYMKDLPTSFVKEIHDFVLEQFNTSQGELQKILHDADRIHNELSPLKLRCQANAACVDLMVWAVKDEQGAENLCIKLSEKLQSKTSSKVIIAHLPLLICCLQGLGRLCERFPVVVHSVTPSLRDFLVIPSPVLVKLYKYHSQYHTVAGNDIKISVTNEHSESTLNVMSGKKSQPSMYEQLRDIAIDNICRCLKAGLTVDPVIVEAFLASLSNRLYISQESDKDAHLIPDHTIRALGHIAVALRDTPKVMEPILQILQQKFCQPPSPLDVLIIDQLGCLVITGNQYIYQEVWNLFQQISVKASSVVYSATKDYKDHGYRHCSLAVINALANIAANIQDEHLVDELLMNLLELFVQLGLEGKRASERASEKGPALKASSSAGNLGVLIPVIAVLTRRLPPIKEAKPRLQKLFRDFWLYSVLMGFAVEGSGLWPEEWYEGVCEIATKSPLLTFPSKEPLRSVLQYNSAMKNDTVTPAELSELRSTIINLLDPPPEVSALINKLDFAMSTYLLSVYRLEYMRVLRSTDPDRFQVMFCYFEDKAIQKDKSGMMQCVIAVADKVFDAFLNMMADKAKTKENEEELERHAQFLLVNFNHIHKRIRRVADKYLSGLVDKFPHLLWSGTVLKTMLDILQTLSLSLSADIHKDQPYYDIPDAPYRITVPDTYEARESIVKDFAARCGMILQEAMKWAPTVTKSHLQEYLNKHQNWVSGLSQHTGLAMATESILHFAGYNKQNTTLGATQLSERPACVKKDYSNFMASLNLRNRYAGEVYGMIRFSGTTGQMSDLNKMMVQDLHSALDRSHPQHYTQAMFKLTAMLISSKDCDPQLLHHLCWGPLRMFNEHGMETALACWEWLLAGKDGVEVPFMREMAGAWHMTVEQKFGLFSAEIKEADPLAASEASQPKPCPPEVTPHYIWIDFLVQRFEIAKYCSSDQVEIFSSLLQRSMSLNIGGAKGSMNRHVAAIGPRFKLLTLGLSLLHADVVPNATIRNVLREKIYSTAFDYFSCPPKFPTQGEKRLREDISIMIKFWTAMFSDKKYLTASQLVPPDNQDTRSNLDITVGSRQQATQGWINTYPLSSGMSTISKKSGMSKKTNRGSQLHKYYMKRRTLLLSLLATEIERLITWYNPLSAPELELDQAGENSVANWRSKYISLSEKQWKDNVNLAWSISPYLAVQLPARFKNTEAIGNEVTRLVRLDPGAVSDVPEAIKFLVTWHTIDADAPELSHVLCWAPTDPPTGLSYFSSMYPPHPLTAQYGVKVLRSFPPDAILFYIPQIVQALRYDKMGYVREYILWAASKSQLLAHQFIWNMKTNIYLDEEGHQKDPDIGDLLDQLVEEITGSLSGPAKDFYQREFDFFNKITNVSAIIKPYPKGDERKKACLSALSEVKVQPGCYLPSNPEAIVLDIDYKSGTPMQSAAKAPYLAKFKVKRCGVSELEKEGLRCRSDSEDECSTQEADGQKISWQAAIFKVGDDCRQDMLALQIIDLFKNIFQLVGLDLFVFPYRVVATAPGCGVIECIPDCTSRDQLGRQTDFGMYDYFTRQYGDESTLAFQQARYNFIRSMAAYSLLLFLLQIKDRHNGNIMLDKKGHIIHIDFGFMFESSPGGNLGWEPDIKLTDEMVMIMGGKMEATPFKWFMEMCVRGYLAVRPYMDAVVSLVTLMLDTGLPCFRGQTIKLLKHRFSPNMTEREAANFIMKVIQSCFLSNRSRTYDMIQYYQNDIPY
T6 sequence (Q9Y572 whole entry): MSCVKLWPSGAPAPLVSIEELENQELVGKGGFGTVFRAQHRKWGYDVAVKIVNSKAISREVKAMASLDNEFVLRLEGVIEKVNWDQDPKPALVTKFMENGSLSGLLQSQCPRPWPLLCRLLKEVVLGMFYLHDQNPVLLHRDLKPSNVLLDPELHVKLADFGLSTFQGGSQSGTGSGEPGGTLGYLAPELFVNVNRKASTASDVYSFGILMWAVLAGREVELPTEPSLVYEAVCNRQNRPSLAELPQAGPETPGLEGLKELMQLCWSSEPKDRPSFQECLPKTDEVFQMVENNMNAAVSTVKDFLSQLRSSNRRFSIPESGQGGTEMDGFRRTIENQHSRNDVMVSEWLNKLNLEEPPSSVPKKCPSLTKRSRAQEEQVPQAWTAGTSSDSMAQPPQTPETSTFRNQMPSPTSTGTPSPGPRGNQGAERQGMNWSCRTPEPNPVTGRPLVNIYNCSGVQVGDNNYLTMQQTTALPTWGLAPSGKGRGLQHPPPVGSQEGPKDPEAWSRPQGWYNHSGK
T2 sequence (P68400 whole entry): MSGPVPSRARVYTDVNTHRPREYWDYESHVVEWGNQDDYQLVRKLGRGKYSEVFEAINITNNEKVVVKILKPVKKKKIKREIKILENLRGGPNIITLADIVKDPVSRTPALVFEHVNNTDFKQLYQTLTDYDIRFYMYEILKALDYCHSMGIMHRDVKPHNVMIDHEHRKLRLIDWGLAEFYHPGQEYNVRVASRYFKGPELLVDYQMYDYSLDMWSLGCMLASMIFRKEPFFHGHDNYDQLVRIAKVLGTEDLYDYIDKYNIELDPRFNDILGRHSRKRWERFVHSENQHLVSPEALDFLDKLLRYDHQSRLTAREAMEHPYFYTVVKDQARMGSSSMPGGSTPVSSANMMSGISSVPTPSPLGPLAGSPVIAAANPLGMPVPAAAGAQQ
T1 sequence (Q06187 whole entry): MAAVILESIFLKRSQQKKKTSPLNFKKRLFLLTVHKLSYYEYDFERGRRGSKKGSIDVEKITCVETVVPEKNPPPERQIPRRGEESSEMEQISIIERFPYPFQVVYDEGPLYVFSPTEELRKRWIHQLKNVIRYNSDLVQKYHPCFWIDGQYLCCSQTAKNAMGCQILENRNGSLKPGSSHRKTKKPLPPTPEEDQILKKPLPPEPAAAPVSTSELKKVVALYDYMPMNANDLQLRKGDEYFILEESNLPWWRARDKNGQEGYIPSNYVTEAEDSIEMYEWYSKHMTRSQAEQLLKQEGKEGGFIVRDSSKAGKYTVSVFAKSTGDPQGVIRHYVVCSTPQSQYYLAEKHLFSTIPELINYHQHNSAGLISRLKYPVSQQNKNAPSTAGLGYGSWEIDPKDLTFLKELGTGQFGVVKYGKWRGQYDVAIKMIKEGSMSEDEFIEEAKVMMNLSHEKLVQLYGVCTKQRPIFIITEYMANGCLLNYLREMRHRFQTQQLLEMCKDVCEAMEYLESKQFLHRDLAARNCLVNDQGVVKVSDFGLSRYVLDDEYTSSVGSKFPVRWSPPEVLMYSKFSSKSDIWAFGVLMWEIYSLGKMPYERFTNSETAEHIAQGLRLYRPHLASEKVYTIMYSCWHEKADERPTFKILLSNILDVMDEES

| Compound | IC50 (kinases (kinome) [1]) [µM] | IC50 (kinases (kinome) [2]) [µM] | IC50 (kinases (kinome) [3]) [µM] | IC50 (kinases (kinome) [4]) [µM] | IC50 (kinases (kinome) [5]) [µM] | IC50 (kinases (kinome) [6]) [µM] | IC50 (kinases (kinome) [7]) [µM] | IC50 (kinases (kinome) [8]) [µM] | IC50 (kinases (kinome) [9]) [µM] |
| --- | --- | --- | --- | --- | --- | --- | --- | --- | --- |
| C[C@H]1COCCN1c1nc(-c2ccc(NC(=O)NC3CC3)cc2)cc(-c2cccnc2S(C)(=O)=O)n1 [Example 46, (S)-1-cyclopropyl-3-(4-(2-(3-methylmorpholino)-6-(2-(methylsulfonyl)pyridin-3-yl)pyrimidin-4-yl)phenyl)urea] | > 10 | > 10 | > 10 | > 10 | > 10 | > 10 | > 10 | > 10 | > 10 |
| C[C@H]1COCCN1c1nc(-c2ccc(NC(=O)N[C@H]3CCC[C@@H]3O)cc2)cc(-c2cc(F)ccc2S(C)(=O)=O)n1 [Example 76, 1-(4-(6-(5-fluoro-2-(methylsulfonyl)phenyl)-2-((S)-3-methylmorpholino)pyrimidin-4-yl)phenyl)-3-((1S,2S)-2-hydroxycyclopentyl)urea] | > 10 | > 10 | > 10 | > 10 | > 10 | > 10 | > 10 | > 10 | > 10 |
| C[C@H]1COCCN1c1cc(-c2ccccn2)nc(-c2ccc(NC(=O)NCCO)cc2)n1 [Example 43, (S)-1-(2-hydroxyethyl)-3-(4-(4-(3-methylmorpholino)-6-(pyridin-2-yl)pyrimidin-2-yl)phenyl)urea] | > 10 | > 10 | > 10 | > 10 | > 10 | > 10 | > 10 | > 10 | > 10 |
| CCNC(=O)Nc1ccc(-c2cc(-c3ccccc3C#N)nc(N3CCOC[C@@H]3C)n2)cc1 [Example 8, (S)-1-(4-(6-(2-cyanophenyl)-2-(3-methylmorpholino)pyrimidin-4-yl)phenyl)-3-ethylurea] | > 10 | > 10 | > 10 | > 10 | > 10 | > 10 | > 10 | > 10 | > 10 |

The remaining lines, values ahead:

| IC50 (kinases (kinome) [1]) [µM] | IC50 (kinases (kinome) [2]) [µM] | IC50 (kinases (kinome) [3]) [µM] | IC50 (kinases (kinome) [4]) [µM] | IC50 (kinases (kinome) [5]) [µM] | IC50 (kinases (kinome) [6]) [µM] | IC50 (kinases (kinome) [7]) [µM] | IC50 (kinases (kinome) [8]) [µM] | IC50 (kinases (kinome) [9]) [µM] | Compound |
| --- | --- | --- | --- | --- | --- | --- | --- | --- | --- |
| > 10 | > 10 | > 10 | > 10 | > 10 | > 10 | > 10 | > 10 | > 10 | C[C@H]1COCCN1c1nc(-c2ccc(NC(=O)NC3CC3)cc2)cc(-c2ccccc2S(C)(=O)=O)n1 [Example 4, (S)-1-cyclopropyl-3-(4-(2-(3-methylmorpholino)-6-(2-(methylsulfonyl)phenyl)pyrimidin-4-yl)phenyl)urea] |
| > 10 | > 10 | > 10 | > 10 | > 10 | > 10 | > 10 | > 10 | > 10 | C[C@H]1COCCN1c1nc(-c2ccc(NC(=O)NC3CC3)cc2)cc(-c2cc(F)ccc2S(C)(=O)=O)n1 [Example 40, (S)-1-cyclopropyl-3-(4-(6-(5-fluoro-2-(methylsulfonyl)phenyl)-2-(3-methylmorpholino)pyrimidin-4-yl)phenyl)urea] |
| > 10 | > 10 | > 10 | > 10 | > 10 | > 10 | > 10 | > 10 | > 10 | C[C@H]1COCCN1c1cc(-c2ccccc2S(C)(=O)=O)nc(-c2ccc(NC(=O)NC3CC3)cc2)n1 [Example 6, (S)-1-cyclopropyl-3-(4-(4-(3-methylmorpholino)-6-(2-(methylsulfonyl)phenyl)pyrimidin-2-yl)phenyl)urea] |

Reference: patent publication US9249129B2, “Morpholino substituted urea derivatives as mTOR inhibitors” (CELLZOME LIMITED, priority 2010, dated 2016)
